Legend:
crabgrass [1] = test: Test Example 3: foliar application of compound No. 238 suspension concentrate with surfactant, crabgrass; type: in vivo, Digitaria sanguinalis L.; details: 30 g a.i./ha water-based suspension concentrate, 21st day
Text: On the 21st day after the application, the state of growth of the plants was visually observed (growth inhibition rate (%)=0 (the same as the untreated plot) to 100 (complete kill)), and the results as shown in Tables b1 and b2 were obtained. Upland field soil was put into a 1/1,000,000 ha pot, and seeds of crabgrass were sown and grown in a greenhouse. When crabgrass reached 4.5 to 5.0 leaf stage, a prescribed amount (30 g a.i./ha) of a water-based suspension concentrate comprising compound No. 238 as an active ingredient, prepared in accordance with the above Example 6, was diluted with water corresponding to 300 L/ha (containing 0.05 vol % of a surfactant containing the POA alkyl ether phosphate), followed by foliar application. Further, for comparison, foliar application was carried out in the same manner by using CITOWETT (tradename) at a concentration of 0.3 vol %, instead of the above surfactant. On the 21st day after the application, the state of growth of the plant was evaluated in the same manner as in Test Example 1, and the results as shown in Table b5 were obtained.

crabgrass [2] = test: Test Example 6: foliar application of compound No. 238 suspension concentrate with surfactant and optional oil or emulsifying agent, crabgrass; type: in vivo, Digitaria sanguinalis L.; details: 7 g a.i./ha suspension concentrate, ADEKA COL PS-440E 0.03 vol %, 20th day
Text: (§1) On the 21st day after the application, the state of growth of the plants was visually observed (growth inhibition rate (%)=0 (the same as the untreated plot) to 100 (complete kill)), and the results as shown in Tables b1 and b2 were obtained.
Upland field soil was put into a 1/1,000,000 ha pot, and seeds of crabgrass were sown and grown in a greenhouse. When crabgrass reached 3.8 to 4.1 leaf stage, a prescribed amount (7 g a.i./ha) of a water-based suspension concentrate comprising compound No. 238 as an active ingredient, prepared in accordance with the above Example 3, was diluted with water corresponding to 300 L/ha (containing 0.03 vol % of a surfactant containing the POA alkyl ether phosphate and optionally having 0.03 vol % of a fatty acid ester, a hydrocarbon solvent or an emulsifying agent added), followed by foliar application. The fatty acid ester used here was AGNIQUE Me 18RD-F (tradename), the hydrocarbon solvent was Solvesso 150 (tradename) and the emulsifying agent was a mixture of a polyoxyethylene sorbitol tetraoleate, a polyoxyethylene castor oil and calcium dodecylbenzene sulfonate.
On the 20th day after the application, the state of growth of the plant was evaluated in the same manner as in Test Example 1, and the results as shown in Table b9 were obtained.

[3] = tested on: crabgrass (Digitaria sanguinalis L.); test: Test Example 1: foliar application of compound No. 1 wettable powder with surfactant, visual growth inhibition, crabgrass; type: in vivo; details: 15 g a.i./ha wettable powder, 21st day
Description: (§2) Upland field soil was put into a 1/1,000,000 ha pot, and seeds of crabgrass (Digitaria sanguinalis L.) and velvetleaf (Abutilon theophrasti L.) were respectively sown and grown in a greenhouse. When crabgrass reached 4.2 to 5.0 leaf stage and velvetleaf reached 3.5 to 4.3 leaf stage, a prescribed amount (15 g a.i./ha) of a wettable powder comprising compound No. 1 as an active ingredient, prepared in accordance with the above Example 1, was diluted with water corresponding to 300 L/ha (containing 0.05 vol % of a surfactant containing the POA alkyl ether phosphate), followed by foliar application (the present invention). Further, for comparison, foliar application was carried out in the same manner by using an alkylaryl polyglycol ether surfactant (tradename: CITOWETT) at a concentration of 0.1 vol %, instead of the above surfactant (comparison).
as §1

[4] = tested on: velvetleaf (Abutilon theophrasti L.); test: Test Example 1: foliar application of compound No. 1 wettable powder with surfactant, visual growth inhibition, velvetleaf; type: in vivo; details: 15 g a.i./ha wettable powder, 21st day
Description: as §2, §1

crabgrass [5] = test: Test Example 7: foliar application of compound No. 2-1 wettable powder with surfactant, crabgrass; type: in vivo, Digitaria sanguinalis L.; details: 15 g a.i./ha wettable powder, 21st day
Text: as §1
(§3) Upland field soil was put into a 1/1,000,000 ha pot, and seeds of crabgrass were sown and grown in a greenhouse. When crabgrass reached 4.0 to 5.0 leaf stage, a prescribed amount (15 g a.i./ha) of a wettable powder comprising compound No. 2-1 as an active ingredient, prepared in accordance with the above Example 1, was diluted with water corresponding to 300 L/ha (containing 0.05 vol % of a surfactant containing the POA alkyl ether phosphate), followed by foliar application. Further, for comparison, foliar application was carried out in the same manner by using a silicon surfactant (tradename: SILWETT L-77) at a concentration of 0.1 vol % instead of the above surfactant.
On the 21st day after the application, the state of growth of the plant was evaluated in the same manner as in Test Example 1, and the results as shown in Table b10 were obtained.

crabgrass [6] = test: Test Example 9: foliar application of compound No. 2-39 wettable powder with surfactant, crabgrass; type: in vivo, Digitaria sanguinalis L.; details: 15 g a.i./ha wettable powder, 21st day
Text: as §1
as §3, with “4.5” for “5.0”, “2-39” for “2-1”, “using” for “using a silicon surfactant (tradename:”, “L-77” for “L-77)”
On the 21st day after the application, the state of growth of the plant was evaluated in the same manner as in Test Example 1, and the results as shown in Table b13 were obtained.

[7] = tested on: crabgrass (Digitaria sanguinalis L.); test: Test Example 2: foliar application of compound No. 53 suspension concentrate with surfactant, crabgrass; type: in vivo; details: 15 g a.i./ha water-based suspension concentrate, 21st day
Description: as §2, §1
(§4) The results as shown in Tables b3 and b4 were obtained in the same manner as the above Test Example 1 except that a prescribed amount (15 g a.i./ha) of a water-based suspension concentrate comprising compound No. 53 as an active ingredient, prepared in accordance with the above Example 2, was used.

[8] = tested on: velvetleaf (Abutilon theophrasti L.); test: Test Example 2: foliar application of compound No. 53 suspension concentrate with surfactant, velvetleaf; type: in vivo; details: 15 g a.i./ha water-based suspension concentrate, 21st day
Description: as §2, §1, §4

crabgrass [9] = test: Test Example 11: foliar application of compound No. 4-3 wettable powder with surfactant, crabgrass; type: in vivo, Digitaria sanguinalis L.; details: 15 g a.i./ha wettable powder, 21st day
Text: as §1
as §3, with “4-3” for “2-1”, “using” for “using a silicon surfactant (tradename:”, “L-77 (tradename)” for “L-77)”
On the 21st day after the application, the state of growth of the plant was evaluated in the same manner as in Test Example 1, and the results as shown in Table b16 were obtained.

[10] = tested on: crabgrass (Digitaria sanguinalis L.); test: Test Example 4: foliar application of compound No. 2-27 wettable powder with surfactant, crabgrass; type: in vivo; details: 15 g a.i./ha wettable powder, 21st day
Description: as §2, §1
(§5) The results as shown in Tables b6 and b7 were obtained in the same manner as in the above Test Example 1 except that a prescribed amount (15 g a.i./ha or 7 g a.i./ha) of a wettable powder comprising compound No. 2-27 as an active ingredient, prepared in accordance with the above Example 4, was used.

[11] = tested on: velvetleaf (Abutilon theophrasti L.); test: Test Example 4: foliar application of compound No. 2-27 wettable powder with surfactant, velvetleaf; type: in vivo; details: 7 g a.i./ha wettable powder, 21st day
Description: as §2, §1, §5

[12] = surfactant NIKKOL DDP-8 0.05 vol %, present invention
[13] = surfactant NIKKOL TDP-8 0.05 vol %, present invention
[14] = surfactant PLYSURF A219B 0.05 vol %, present invention
[15] = surfactant ADECA COL PS-440E 0.05 vol %, present invention
[16] = surfactant CITOWETT 0.1 vol %, comparison
[17] = surfactant PHOSPHANOL RS-710 0.05 vol %, present invention
[18] = surfactant SILWETT L-77 0.1 vol %, comparison
[19] = surfactant PHOSPHANOL RS-410 0.05 vol %, present invention

COCCOc1c(S(C)(=O)=O)ccc(C(=O)c2cnn(C)c2OC(=O)SC(C)(C)C)c1C [Compound No. 238]
Growth inhibition rate (%) of crabgrass (crabgrass [1]; surfactant ADEKA COL PS-440E 0.05 vol %, present invention): 75% | Growth inhibition rate (%) of crabgrass (crabgrass [1]; surfactant CITOWETT 0.3 vol %, comparison): 50% | Growth inhibition rate (%) of crabgrass (crabgrass [1]; [12]): 90% | Growth inhibition rate (%) of crabgrass (crabgrass [1]; [13]): 90% | Growth inhibition rate (%) of crabgrass (crabgrass [1]; surfactant PHOSPHANOL RS710 0.05 vol %, present invention): 80% | Growth inhibition rate (%) of crabgrass (crabgrass [1]; [14]): 90% | Growth inhibition rate (%) of crabgrass (crabgrass [2]; fatty acid ester and emulsifying agent added): 83% | Growth inhibition rate (%) of crabgrass (crabgrass [2]; fatty acid ester, hydrocarbon solvent and emulsifying agent added): 85% | Growth inhibition rate (%) of crabgrass (crabgrass [2]; hydrocarbon solvent and emulsifying agent added): 83% | Growth inhibition rate (%) of crabgrass (crabgrass [2]; no fatty acid ester, hydrocarbon solvent or emulsifying agent): 73%

CCSC(=O)Oc1c(C(=O)c2ccc(S(C)(=O)=O)c(C(=O)OC)c2C)cnn1C [Compound No. 1]
Growth inhibition rate (%) of crabgrass [3, 15]: 70% | Growth inhibition rate (%) of crabgrass [3, 16]: 50% | Growth inhibition rate (%) of crabgrass [3, 12]: 73% | Growth inhibition rate (%) of crabgrass [3, 14]: 60% | Growth inhibition rate (%) of velvetleaf [4, 15]: 93% | Growth inhibition rate (%) of velvetleaf [4, 16]: 73% | Growth inhibition rate (%) of velvetleaf [4, 12]: 93% | Growth inhibition rate (%) of velvetleaf [4, 14]: 90%

COC(=O)c1c(S(C)(=O)=O)ccc(C(=O)c2cnn(C)c2O)c1C [2-1]
Growth inhibition rate (%) of crabgrass (crabgrass [5]; [17]): 75% | Growth inhibition rate (%) of crabgrass (crabgrass [5]; [14]): 70% | Growth inhibition rate (%) of crabgrass (crabgrass [5]; [18]): 10%

CCOCc1c(S(C)(=O)=O)ccc(C(=O)c2cnn(C)c2O)c1C [2-39]
Growth inhibition rate (%) of crabgrass (crabgrass [6]; [15]): 93% | Growth inhibition rate (%) of crabgrass (crabgrass [6]; [12]): 93% | Growth inhibition rate (%) of crabgrass (crabgrass [6]; [19]): 70% | Growth inhibition rate (%) of crabgrass (crabgrass [6]; [18]): 20%

CCSC(=O)Oc1c(C(=O)c2ccc(S(C)(=O)=O)c(OCCOC)c2C)cnn1C [Compound No. 53]
Growth inhibition rate (%) of crabgrass [7, 15]: 90% | Growth inhibition rate (%) of crabgrass [7, 16]: 50% | Growth inhibition rate (%) of crabgrass [7, 12]: 90% | Growth inhibition rate (%) of crabgrass [7, 14]: 78% | Growth inhibition rate (%) of velvetleaf [8, 15]: 93% | Growth inhibition rate (%) of velvetleaf [8, 16]: 78% | Growth inhibition rate (%) of velvetleaf [8, 12]: 98% | Growth inhibition rate (%) of velvetleaf [8, 14]: 90%

CCOC(=O)OC(C)Oc1c(C(=O)c2ccc(S(C)(=O)=O)c(OCCOC)c2C)cnn1CC (centres unmarked) [Compound No. 4-3]
Growth inhibition rate (%) of crabgrass (crabgrass [9]; [15]): 83% | Growth inhibition rate (%) of crabgrass (crabgrass [9]; [12]): 80% | Growth inhibition rate (%) of crabgrass (crabgrass [9]; [13]): 85% | Growth inhibition rate (%) of crabgrass (crabgrass [9]; surfactant PHOSPHANOL ML-240 0.05 vol %, present invention): 90% | Growth inhibition rate (%) of crabgrass (crabgrass [9]; [19]): 80% | Growth inhibition rate (%) of crabgrass (crabgrass [9]; [17]): 80% | Growth inhibition rate (%) of crabgrass (crabgrass [9]; surfactant PHOSPHOLAN PS-236 0.05 vol %, present invention): 80% | Growth inhibition rate (%) of crabgrass (crabgrass [9]; [14]): 98% | Growth inhibition rate (%) of crabgrass (crabgrass [9]; [18]): 55%

COCCOc1c(S(C)(=O)=O)ccc(C(=O)c2cnn(C)c2O)c1C [Compound No. 2-27]
Growth inhibition rate (%) of crabgrass [10, 15]: 90% | Growth inhibition rate (%) of crabgrass [10, 16]: 78% | Growth inhibition rate (%) of crabgrass [10, 12]: 90% | Growth inhibition rate (%) of crabgrass [10, 14]: 94% | Growth inhibition rate (%) of velvetleaf [11, 15]: 80% | Growth inhibition rate (%) of velvetleaf [11, 16]: 63% | Growth inhibition rate (%) of velvetleaf [11, 12]: 95% | Growth inhibition rate (%) of velvetleaf [11, 14]: 70%
